Results taken from patent US12552737B2, “Salts of (2R, 6R)-hydroxynorketamine, their crystal forms, and methods of making the same” (THE UNITED STATES OF AMERICA, AS REPRESENTED BY THE …, priority 2019, dated 2026).

What was measured:
[1] = Dynamic vapor sorption (DVS) sorption-desorption; type: physicochemical; details: for hygroscopicity: DVS, water, 25° C., 0% RH to 95% RH
Protocol: Dynamic Vapor Sorption (DVS)
Typically, 20-50 mg of the test substances were mounted in a gauze basket and transferred to the sample port. Excess static electricity was removed throughout sample handling and sample mounting using a 210Po static eliminator. Instrument performance checks were completed using traceable samples of sodium chloride and lithium chloride.

[2] = based on X-ray powder diffraction data
Protocol: X-Ray Powder Diffraction (XRPD)
X-ray powder diffractograms were acquired using a Bruker D5000 diffractometer in Bragg-Brentano configuration. Extended acquisition parameters were employed for each batch of the drug substance, as detailed below. • Acquisition parameters: • Source: CuKα • Wavelength: 1.5406 Å • Scan range: 2-40° (2θ) • Step size: 0.01° (2θ) • Time per step: 4.0 s • Divergence slit width: 2 mm • Antiscatter slit width: 2 mm • Detector slit width: 0.2 mm • Sample rotation: Engaged • Tube accelerating potential: 40 kV • Tube accelerating current: 30 mA • Temperature: Ambient (nominally 18-22° C.)
Approximately 2 mg of each sample was mounted on a silicon base for the analyses.
All the data were smoothed by use of Fourier algorithms and the background was subtracted from each diffractogram. Instrument performance checks were completed prior to measurements using a NIST traceable standard of corundum and also using a standard of Arkansas stone quartz.
Dynamic vapor sorption-desorption experiments were carried out using a DVS Resolution instrument supplied by Surface Measurement Systems. […]

Compound	hygroscopicity [1]	hygroscopicity ([1]; listed as (2R,6R)-hydroxynorketamine malonate)	change of physical form on exposure to elevated relative humidities [2]	hygroscopicity ([1]; listed as (2R,6R)-hydroxynorketamine salicylate)	water acquired in DVS isotherm ([1]; over the entire range of relative humidities (0% RH to 95% RH))
NC1(c2ccccc2Cl)CCCC(O)C1=O.O=C(O)CC(=O)O (stereo not drawn) [RR-HNK malonate, 2R,6R-hydroxynorketamine (RR-HNK) Malonate]	non-hygroscopic	very low hygroscopicity			
N[C@@]1(c2ccccc2Cl)CCC[C@@H](O)C1=O.O=C(O)c1ccccc1O [RR-HNK salicylate, 2R,6R-hydroxynorketamine (RR-HNK) Salicylate]	non-hygroscopic		does not change the physical form	very low hygroscopicity	acquires very little water
